Results from PubChem BioAssay AID248 (DTP/NCI, 2004).
Inconclusive results and toxic doses are left out. Cut-off read from the data, not from the text of the source: active = T/C of 150% or more; inactive = T/C below 125%.

System: L1210 leukemia ip in BDF1 mice, survival T/C
Assay: NCI In Vivo Anticancer Drug Screen. Data for tumor model L1210 Leukemia (intraperitoneal) in B6D2F1 (BDF1) mice
Settings: endpoint: mean survival time, higher = longer survival
Procedure, shortened: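 Transplanted-tumor mice were given test agent; controls received vehicle only. Survival readings from the two groups were divided (treated over control).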

Measured: T/C

Nc1nc(SCc2ccccc2)c2ncn(CCCl)c2n1
active: dose: 30.0 mg/kg/injection, schedule: Q01DX Z (ip), vehicle: carboxymethylcellulose (CMC) 150 % of control
inactive: dose: 5.0 mg/kg/injection, schedule: Q01DX001 (ip), vehicle: carboxymethylcellulose (CMC) 107 % of control | dose: 10.0 mg/kg/injection, schedule: Q01DX001 (ip), vehicle: carboxymethylcellulose (CMC) 107 % of control | dose: 13.0 mg/kg/injection, schedule: Q01DX Z (ip), vehicle: carboxymethylcellulose (CMC) 105 % of control | dose: 20.0 mg/kg/injection, schedule: Q01DX001 (ip), vehicle: carboxymethylcellulose (CMC) 107 % of control | dose: 40.0 mg/kg/injection, schedule: Q01DX001 (ip), vehicle: carboxymethylcellulose (CMC) 120 % of control | dose: 67.0 mg/kg/injection, schedule: Q01DX Z (ip), vehicle: carboxymethylcellulose (CMC) 116 % of control | dose: 80.0 mg/kg/injection, schedule: Q01DX001 (ip), vehicle: carboxymethylcellulose (CMC) 122 % of control | dose: 100.0 mg/kg/injection, schedule: Q01DX Z (ip), vehicle: carboxymethylcellulose (CMC) 101 % of control | dose: 150.0 mg/kg/injection, schedule: Q01DX Z (ip), vehicle: carboxymethylcellulose (CMC) 90 % of control | dose: 320.0 mg/kg/injection, schedule: Q01DX001 (ip), vehicle: carboxymethylcellulose (CMC) 116 % of control

CCOC(=O)/C=[C](\C(=O)OCC)[Sn]([CH2]C)([CH2]C)[CH2]C
inactive: dose: 50.0 mg/kg/injection, schedule: Q01DX009 (ip), vehicle: saline with Tween-80 104 % of control | dose: 100.0 mg/kg/injection, schedule: Q01DX009 (ip), vehicle: saline with Tween-80 96 % of control | dose: 200.0 mg/kg/injection, schedule: Q01DX009 (ip), vehicle: saline with Tween-80 93 % of control

O=C(CCl)c1ccc2c(c1)Nc1ccccc1S2
inactive: dose: 50.0 mg/kg/injection, schedule: Q01DX001 (ip), vehicle: carboxymethylcellulose (CMC) 93 % of control | dose: 200.0 mg/kg/injection, schedule: Q01DX001 (ip), vehicle: carboxymethylcellulose (CMC) 93 % of control | dose: 400.0 mg/kg/injection, schedule: Q01DX001 (ip), vehicle: carboxymethylcellulose (CMC) 96 % of control

NC(=S)N/N=C/c1ccc([N+](=O)[O-])cc1
inactive: dose: 12.5 mg/kg/injection, schedule: Q01DX001 (ip), vehicle: saline with Tween-80 95 % of control | dose: 25.0 mg/kg/injection, schedule: Q01DX001 (ip), vehicle: saline with Tween-80 95 % of control | dose: 50.0 mg/kg/injection, schedule: Q01DX001 (ip), vehicle: saline with Tween-80 91 % of control

Cc1ccc(C(SCC(N)C(=O)O)(c2ccccc2)c2ccccc2)cc1 (stereo not given)
active: dose: 12.5 mg/kg/injection, schedule: Q01DX009 (ip), vehicle: other 157 % of control | dose: 12.5 mg/kg/injection, schedule: Q01DX009 (ip), vehicle: saline 159 % of control | dose: 25.0 mg/kg/injection, schedule: Q01DX009 (ip), vehicle: other 157 % of control | dose: 25.0 mg/kg/injection, schedule: Q01DX009 (ip), vehicle: saline 171 % of control | dose: 50.0 mg/kg/injection, schedule: Q01DX009 (ip), vehicle: other 151 % of control | dose: 50.0 mg/kg/injection, schedule: Q01DX009 (ip), vehicle: saline 204 % of control

CCN(CC)CCNc1nc(-c2cc(C(F)(F)F)cc(C(F)(F)F)c2)nc(C(Cl)(Cl)Cl)n1
inactive: dose: 100.0 mg/kg/injection, schedule: Q04DX002 (ip), vehicle: saline 88 % of control | dose: 200.0 mg/kg/injection, schedule: Q04DX002 (ip), vehicle: saline 101 % of control | dose: 400.0 mg/kg/injection, schedule: Q04DX002 (ip), vehicle: saline 88 % of control

CCCCC(N)C(=O)O (stereo not given)
inactive: dose: 100.0 mg/kg/injection, schedule: Q04DX003 (ip), vehicle: Klucel (hydroxypropylcellulose) (HPC) 98 % of control | dose: 200.0 mg/kg/injection, schedule: Q04DX003 (ip), vehicle: Klucel (hydroxypropylcellulose) (HPC) 95 % of control | dose: 400.0 mg/kg/injection, schedule: Q04DX003 (ip), vehicle: Klucel (hydroxypropylcellulose) (HPC) 98 % of control

O=C1C(Cl)=C(Cl)C(Cl)(Cl)C1(Cl)Cl
inactive: dose: 12.5 mg/kg/injection, schedule: Q01DX009 (ip), vehicle: Klucel (hydroxypropylcellulose) (HPC) 98 % of control | dose: 12.5 mg/kg/injection, schedule: Q04DX003 (ip), vehicle: Klucel (hydroxypropylcellulose) (HPC) 98 % of control | dose: 25.0 mg/kg/injection, schedule: Q01DX009 (ip), vehicle: Klucel (hydroxypropylcellulose) (HPC) 101 % of control | dose: 25.0 mg/kg/injection, schedule: Q04DX003 (ip), vehicle: Klucel (hydroxypropylcellulose) (HPC) 96 % of control | dose: 50.0 mg/kg/injection, schedule: Q01DX009 (ip), vehicle: Klucel (hydroxypropylcellulose) (HPC) 94 % of control | dose: 50.0 mg/kg/injection, schedule: Q04DX003 (ip), vehicle: Klucel (hydroxypropylcellulose) (HPC) 100 % of control

NC(N)=NCCCNCCCN=C(N)N
inactive: dose: 17.5 mg/kg/injection, schedule: Q01DX Z (oral), vehicle: saline 100 % of control | dose: 35.0 mg/kg/injection, schedule: Q01DX Z (oral), vehicle: saline 101 % of control | dose: 70.0 mg/kg/injection, schedule: Q01DX Z (oral), vehicle: saline 114 % of control | dose: 140.0 mg/kg/injection, schedule: Q01DX Z (oral), vehicle: saline 117 % of control

CCCCCCN1C(C)C1C(C)C (stereo not given)
inactive: dose: 20.0 mg/kg/injection, schedule: Q01DX009 (ip), vehicle: saline 114 % of control | dose: 20.0 mg/kg/injection, schedule: Q04DX003 (ip), vehicle: Klucel (hydroxypropylcellulose) (HPC) 105 % of control | dose: 40.0 mg/kg/injection, schedule: Q01DX009 (ip), vehicle: saline 115 % of control | dose: 40.0 mg/kg/injection, schedule: Q04DX003 (ip), vehicle: Klucel (hydroxypropylcellulose) (HPC) 100 % of control | dose: 80.0 mg/kg/injection, schedule: Q01DX009 (ip), vehicle: saline 107 % of control | dose: 80.0 mg/kg/injection, schedule: Q04DX003 (ip), vehicle: Klucel (hydroxypropylcellulose) (HPC) 105 % of control

CN(CCC#N)C(=O)Nc1ccccc1
inactive: dose: 100.0 mg/kg/injection, schedule: Q01DX Z (ip), vehicle: methylcellulose (MC) 103 % of control | dose: 200.0 mg/kg/injection, schedule: Q01DX Z (ip), vehicle: methylcellulose (MC) 95 % of control

NC(=O)N/N=C1/CC2C3C=CC4C3CC2C14 (stereo not given)
inactive: dose: 37.5 mg/kg/injection, schedule: Q04DX002 (ip), vehicle: saline with Tween-80 117 % of control | dose: 75.0 mg/kg/injection, schedule: Q04DX002 (ip), vehicle: saline with Tween-80 102 % of control | dose: 150.0 mg/kg/injection, schedule: Q04DX002 (ip), vehicle: saline with Tween-80 106 % of control | dose: 300.0 mg/kg/injection, schedule: Q04DX002 (ip), vehicle: saline with Tween-80 98 % of control

S=c1cc[nH]c2n[nH]nc12
inactive: dose: 100.0 mg/kg/injection, schedule: Q01DX001 (ip), vehicle: saline with Tween-80 101 % of control | dose: 100.0 mg/kg/injection, schedule: Q04DX003 (ip), vehicle: saline with Tween-80 104 % of control | dose: 200.0 mg/kg/injection, schedule: Q01DX001 (ip), vehicle: saline with Tween-80 101 % of control | dose: 200.0 mg/kg/injection, schedule: Q04DX003 (ip), vehicle: saline with Tween-80 101 % of control | dose: 400.0 mg/kg/injection, schedule: Q01DX001 (ip), vehicle: saline with Tween-80 103 % of control | dose: 400.0 mg/kg/injection, schedule: Q04DX003 (ip), vehicle: saline with Tween-80 98 % of control
